According to PMC10799935, “Discovery of a peripheral 5HT2A antagonist as a clinical candidate for metabolic dysfunction-associated steatohepatitis” (Nature Communications, 2024):
Several values for one entry are separate records, joined by “and”; a condition that tells them apart may be missing. Equal entries are not always repeated.

Experiments:
[1] = Hepatocyte stability test, mouse; type: in vitro ADME; details: male, CD1, cryopreserved hepatocytes, pH 7.4, read-out: Hepatocyte stability (% remaining after 3 h)
Procedure: Hepatocyte incubations for the test compound (10 μM final concentration, n = 2 per each time point) were carried out in mouse, rat, dog, monkey and human cryopreserved hepatocytes, resuspended at a density of 0.5 million cells/ml of modified Krebs-Henseleit buffer (KHB). The information regarding the hepatocytes used in the experiment is as follows: liverPool® 10-donor mixed gender human (BioIVT, Cat.No. X008001, lot EAV), male cynomolgus monkey (BioIVT, Cat.No. M00305, lot COJ), male Beagle dog (BioIVT, Cat.No. M00205, lot USY), male Sprague Dawley rat (BioIVT, Cat.No. M00005, lot TQE) and male CD1 mouse (BioIVT, Cat.No.005052, lot LFF). In addition, the compound was also incubated with blank KHB. The final concentration of solvent (DMSO) was 0.1% of the final volume. The incubations were performed for 3 hours at 37°C and pH 7.4. Reactions were terminated at 0 and 180 minutes by the addition of 3 volumes of stop solution (acetonitrile/methanol (2:1, v/v) containing internal standard–diclofenac at 100 ng/ml). Samples (compound spiked buffer and compound spiked hepatocytes, as well as blank samples, i.e. hepatocytes with the same DMSO%) were then centrifuged and aliquots were transferred to 96-deep micronic tubes and frozen at -80 °C until LC-MS/MS analysis. […]

HFD-fed C57BL/6J mice [2] = assay: DIO mice (HFD, 8 weeks): body weight; type: in vivo, mouse; details: for Body weight: Predicted (LS) mean diff., Vehicle vs. 11c: Dunnett's test; for 16hr fasting B.W.: DIO C57BL/6J mice, PO; for Body weight: DIO mice, individual mice and group Mean, in g (unit assumed)
Excerpt: For in vivo efficacy in DIO models and CDAHFD models, the experimental protocol for this study was approved by the Institutional Animal Care and Use Committee (IACUC) at the Korea Advanced Institute of Science and Technology (No. KA2023-027-v2) or Kyungpook National University (No. KNU-20200134). All relevant ethical guidelines were followed. C57BL/6 J male mice (11 weeks old) were purchased from the Charles River Japan and were housed in a specific pathogen-free barrier facility under a regular light-dark cycle (12-hour light/12-hour dark) at 24°C with 40–60% humidity. Food (standard chow diet, Envigo, 2018S) and water were provided ad libitum. […] Mice were euthanized by the method of cervical dislocation. The measurement of lean and fat mass in live mice was performed by a body composition analyzer (LF50 BCA-analyzer, Bruker). After 6 h of fasting, mice were sacrificed, and tissue samples were obtained.

HFD-fed C57BL/6J mice [3] = assay: DIO mice: fasting glucose levels; type: in vivo, mouse; details: PO, in mg/dL (unit assumed)
[4] = 5mpk, individual animals, 5 mg/kg
[5] = 10mpk, individual animals, 10 mg/kg

For `Cc1nc2n(c(=O)c1CCN1CCC(=C3c4ccc(Cl)cc4CCc4cccnc43)CC1)CCCC2O` (stereo not drawn) [Compound 11c], the remaining at 3 h, 10 μM [1] was 75%, the Body weight: Predicted (LS) mean diff., Vehicle vs. 11c (HFD-fed C57BL/6J mice [2]; 5mpk, week 12) was 0.7 g and the Body weight: Predicted (LS) mean diff., Vehicle vs. 11c (HFD-fed C57BL/6J mice [2]; 5mpk, week 13) was 0.6 g. For the same molecule, the Body weight: Predicted (LS) mean diff., Vehicle vs. 11c (HFD-fed C57BL/6J mice [2]; 5mpk, week 14) was 0.7 g, the Body weight: Predicted (LS) mean diff., Vehicle vs. 11c (HFD-fed C57BL/6J mice [2]; 5mpk, week 15) was 0.6 g and the Body weight: Predicted (LS) mean diff., Vehicle vs. 11c (HFD-fed C57BL/6J mice [2]; 5mpk, week 16) was 1.1 g. It also gave a Body weight: Predicted (LS) mean diff., Vehicle vs. 11c (HFD-fed C57BL/6J mice [2]; 5mpk, week 17) of 1.7 g, a Body weight: Predicted (LS) mean diff., Vehicle vs. 11c (HFD-fed C57BL/6J mice [2]; 5mpk, week 18) of 2.1 g and a Body weight: Predicted (LS) mean diff., Vehicle vs. 11c (HFD-fed C57BL/6J mice [2]; 5mpk, week 19) of 2.7 g. The Body weight: Predicted (LS) mean diff., Vehicle vs. 11c (HFD-fed C57BL/6J mice [2]; 5mpk, week 20) was 2.7 g, the Body weight: Predicted (LS) mean diff., Vehicle vs. 11c (HFD-fed C57BL/6J mice [2]; 5mpk, week 21) was 3.4 g and the “body weight gain upon HFD” value (HFD-fed C57BL/6J mice [2]; 10 mpk daily oral gavage, 8 weeks, vs vehicle-treated mice) was “attenuated”. The Body weight: Predicted (LS) mean diff., Vehicle vs. 11c (HFD-fed C57BL/6J mice [2]; 10mpk, week 12) was 0.1 g, the Body weight: Predicted (LS) mean diff., Vehicle vs. 11c (HFD-fed C57BL/6J mice [2]; 10mpk, week 13) was 0.9 g and the Body weight: Predicted (LS) mean diff., Vehicle vs. 11c (HFD-fed C57BL/6J mice [2]; 10mpk, week 14) was 1.5 g. For the same molecule, the Body weight: Predicted (LS) mean diff., Vehicle vs. 11c (HFD-fed C57BL/6J mice [2]; 10mpk, week 15) was 1.8 g, the Body weight: Predicted (LS) mean diff., Vehicle vs. 11c (HFD-fed C57BL/6J mice [2]; 10mpk, week 16) was 3.7 g and the Body weight: Predicted (LS) mean diff., Vehicle vs. 11c (HFD-fed C57BL/6J mice [2]; 10mpk, week 17) was 6.3 g. The Body weight: Predicted (LS) mean diff., Vehicle vs. 11c (HFD-fed C57BL/6J mice [2]; 10mpk, week 18) was 7.2 g, the Body weight: Predicted (LS) mean diff., Vehicle vs. 11c (HFD-fed C57BL/6J mice [2]; 10mpk, week 19) was 7.7 g and the Body weight: Predicted (LS) mean diff., Vehicle vs. 11c (HFD-fed C57BL/6J mice [2]; 10mpk, week 20) was 7.2 g. The Body weight: Predicted (LS) mean diff., Vehicle vs. 11c (HFD-fed C57BL/6J mice [2]; 10mpk, week 21) was 7.2 g, the “16hr fasting B.W.” value (HFD-fed C57BL/6J mice [2]; 5mpk, group mean) was 41.2 and the “16hr fasting B.W.” value (HFD-fed C57BL/6J mice [2]; [4]) was 43.7 and 38.6 and 37.5 and 35.1 and 41.4 and 48.5 and 43.4. The “16hr fasting B.W.” value (HFD-fed C57BL/6J mice [2]; 10mpk, group mean) was 36.5, the “16hr fasting B.W.” value (HFD-fed C57BL/6J mice [2]; [5]) was 33.5 and 41.1 and 34.8 and 42.8 and 35.7 and 31.2 and the “Body weight” value (HFD-fed C57BL/6J mice [2]; 5mpk PO, week 12 (2021.04.26), 5 mg/kg) was 25.4 and 23.4 and 24.4 and 26.8 and 26.0 and 30.2 and 25.6. For the same molecule, the “Body weight” value (HFD-fed C57BL/6J mice [2]; 5mpk PO, week 13, 5 mg/kg) was 29.8 and 27.5 and 28.5 and 28.2 and 28.9 and 32.0 and 29.6, the “Body weight” value (HFD-fed C57BL/6J mice [2]; 5mpk PO, week 13, 5 mg/kg, mean) was 29.2 and the “Body weight” value (HFD-fed C57BL/6J mice [2]; 5mpk PO, week 14, 5 mg/kg) was 32.9 and 29.6 and 29.0 and 31.0 and 34.0 and 31.6. The “Body weight” value (HFD-fed C57BL/6J mice [2]; 5mpk PO, week 15, 5 mg/kg) was 35.3 and 30.6 and 29.8 and 29.5 and 33.2 and 37.1 and 34.1, the “Body weight” value (HFD-fed C57BL/6J mice [2]; 5mpk PO, week 15, 5 mg/kg, mean) was 32.8 and the “Body weight” value (HFD-fed C57BL/6J mice [2]; 5mpk PO, week 16, 5 mg/kg) was 37.5 and 32.7 and 32.5 and 31.1 and 35.5 and 40.4 and 36.8. The “Body weight” value (HFD-fed C57BL/6J mice [2]; 5mpk PO, week 16, 5 mg/kg, mean) was 35.2, the “Body weight” value (HFD-fed C57BL/6J mice [2]; 5mpk PO, week 17, 5 mg/kg) was 39.7 and 34.6 and 33.9 and 32.4 and 37.7 and 43.6 and 39.6 and the “Body weight” value (HFD-fed C57BL/6J mice [2]; 5mpk PO, week 17, 5 mg/kg, mean) was 37.4. For the same molecule, the “Body weight” value (HFD-fed C57BL/6J mice [2]; 5mpk PO, week 18, 5 mg/kg) was 41.7 and 36.9 and 35.3 and 33.1 and 40.0 and 45.0 and 41.5, the “Body weight” value (HFD-fed C57BL/6J mice [2]; 5mpk PO, week 18, 5 mg/kg, mean) was 39.1 and the “Body weight” value (HFD-fed C57BL/6J mice [2]; 5mpk PO, week 19, 5 mg/kg) was 43.5 and 38.6 and 37.3 and 34.8 and 41.8 and 47.5 and 43.3. The “Body weight” value (HFD-fed C57BL/6J mice [2]; 5mpk PO, week 19, 5 mg/kg, mean) was 41.0, the “Body weight” value (HFD-fed C57BL/6J mice [2]; 5mpk PO, week 20, 5 mg/kg) was 45.7 and 40.4 and 39.5 and 37.0 and 43.5 and 51.0 and 45.4 and the “Body weight” value (HFD-fed C57BL/6J mice [2]; 5mpk PO, week 20, 5 mg/kg, mean) was 43.2. The “Body weight” value (HFD-fed C57BL/6J mice [2]; 5mpk PO, week 21, 5 mg/kg) was 44.4 and 40.2 and 39.8 and 36.4 and 42.4 and 50.0 and 45.2, the “Body weight” value (HFD-fed C57BL/6J mice [2]; 5mpk PO, week 21, 5 mg/kg, mean) was 42.6 and the “Body weight” value (HFD-fed C57BL/6J mice [2]; 10mpk PO, week 12 (2021.04.26), 10 mg/kg) was 26.6 and 29.1. The “Body weight” value (HFD-fed C57BL/6J mice [2]; 10mpk PO, week 13, 10 mg/kg) was 29.9 and 31.2, the “Body weight” value (HFD-fed C57BL/6J mice [2]; 10mpk PO, week 14, 10 mg/kg) was 31.8 and 32.6 and the “Body weight” value (HFD-fed C57BL/6J mice [2]; 10mpk PO, week 15, 10 mg/kg) was 34.0 and 33.3 and 29.5. The “Body weight” value (HFD-fed C57BL/6J mice [2]; 10mpk PO, week 16, 10 mg/kg) was 36.3 and 34.1 and 30.0, the “Body weight” value (HFD-fed C57BL/6J mice [2]; 10mpk PO, week 17, 10 mg/kg) was 36.6 and 35.0 and 29.8 and the “Body weight” value (HFD-fed C57BL/6J mice [2]; 10mpk PO, week 18, 10 mg/kg) was 35.5 and 37.1. For the same molecule, the “Body weight” value (HFD-fed C57BL/6J mice [2]; 10mpk PO, week 19, 10 mg/kg) was 34.6 and 39.9, the “Body weight” value (HFD-fed C57BL/6J mice [2]; 10mpk PO, week 20, 10 mg/kg) was 35.7 and 43.1 and the “Body weight” value (HFD-fed C57BL/6J mice [2]; 10mpk PO, week 21, 10 mg/kg) was 36.0 and 43.2. For the same molecule, the “6hr Fasting Glucose Levels, Average 7W” value (HFD-fed C57BL/6J mice [3]; 5mpk, group mean) was 158.2, the “6hr Fasting Glucose Levels, Average 7W” value (HFD-fed C57BL/6J mice [3]; [4]) was 172.5 and 172.0 and 150.5 and 154.0 and 119.5 and 188.0 and 151.0 and the “6hr Fasting Glucose Levels, Blood Glucose Level” value (HFD-fed C57BL/6J mice [3]; 5mpk, 2021.03.29, duplicate readings of individual animals, 5 mg/kg) was 173.0 and 172.0 and 155.0 and 189.0 and 149.0 and 152.0 and 158.0 and 150.0 and 127.0 and 112.0 and 181.0 and 195.0 and 140.0 and 162.0. For the same molecule, the “6hr Fasting Glucose Levels, Average 7W” value (HFD-fed C57BL/6J mice [3]; 10mpk, group mean) was 134.9, the “6hr Fasting Glucose Levels, Average 7W” value (HFD-fed C57BL/6J mice [3]; [5]) was 116.0 and 126.0 and 147.5 and 160.5 and 170.0 and 89.5 and the “6hr Fasting Glucose Levels, Blood Glucose Level” value (HFD-fed C57BL/6J mice [3]; 10mpk, 2021.03.29, duplicate readings of individual animals, 10 mg/kg) was 117.0 and 115.0 and 121.0 and 131.0 and 148.0 and 147.0 and 163.0 and 158.0 and 171.0 and 169.0 and 89.0 and 90.0.
